Results on 22 molecules are retold here after the supplement of paper PMC5412046.

Assay [1] deals with SB.mhdgc-1. Briefly: viability at highest tested concentration (MAXR) relative to DMSO; higher = less cytotoxic. To be noted: SB.mhdgc-1 (hereditary c.1380delA CDH1 gastric cancer). The essentials: (§1)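 Reported here is DMSO-normalised viability, either at the highest concentration or as a trapezoidal area under the curve. Hereditary or sporadic patient-derived gastric cancer cells received compound by pintool at 11 threefold-diluted concentrations and were read with CellTiter-Glo after 48 h.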

Assay [2] has as its system SB.msgc-1. The description is as above. To be noted: SB.msgc-1 (sporadic gastric cancer). The essentials:
as §1

In assay [3] the test system is SB.mhdgc-1. Description: area under the dose-response curve of % viability (trapezoidal, 11 doses) (% viability x log10 concentration); higher = less cytotoxic. To be noted: SB.mhdgc-1 (hereditary c.1380delA CDH1 gastric cancer). The essentials: as §1
Assay [4] concerns SB.msgc-1. The description is as above. Particulars: SB.msgc-1 (sporadic gastric cancer). In a few lines:
as §1

Where a name gives a salt, the structure may show the parent alone.

On to `Oc1ccc2ccccc2c1SSc1c(O)ccc2ccccc12` [IPA-3] (top concentration 46.0829 µM), for which the viability (commonly a read-out of living cells in per cent, often relative to untreated cells) turned out to be 20.8% with SB.mhdgc-1 [1] and 76.2% in the assay with SB.msgc-1 [2]. In addition, the “area under the dose-response curve” value is 476 with SB.mhdgc-1 [3] and 536 in the assay with SB.msgc-1 [4].
Taken in the same sequence, the figures for `Nc1ccc(C(=O)c2cc3c(ccc4ccccc43)[nH]2)cc1` [IPFK2] (top concentration 46.0829 µM) were 16.9%, 27.4%, 506 and 431.
Taken in the same sequence, the figures for `CC(C)(C)OC(=O)Nc1ccc(-c2cc(C(=O)NCCCCCCC(=O)NO)no2)cc1` [ISOX] (top concentration 46.0829 µM) were 53.1%, 3.64%, 438 and 351.
In the case of `CCOC(=O)\C1=C(/C)N\C2=C(C1C3=CC=C(C=C3)C4=CC=CC=C4)\C(=O)CC(C)(C)C2` (stereo not drawn) [ITD-1] (top concentration 46.0829 µM), the viability in the assay with SB.mhdgc-1 [1] stood at 26.3%; with SB.msgc-1 [2], 53.1%. In addition, the “area under the dose-response curve” value came out at 522 with SB.mhdgc-1 [3] and 497 in the assay with SB.msgc-1 [4].
Taken in the same sequence, the figures for `COc1cc(C)c(Sc2cnc(NC(=O)c3ccc(CNC(C)C(C)C)cc3)s2)cc1C(=O)N1CCN(C(C)=O)CC1` (stereo not drawn) [ITK inhibitor] (top concentration 46.0829 µM) were 37.2%, 62.7%, 454 and 522.
For `Cc1cc(/C=c2/sc3nc4ccccc4n3c2=O)c(C)n1-c1ccccc1` [ITX3] (top concentration 46.0829 µM), the viability in the assay on SB.mhdgc-1 [1] is 55.4%; with SB.msgc-1 [2], 56.6%. The “area under the dose-response curve” value came out at 590 in the assay on SB.mhdgc-1 [3] and 504 in the assay with SB.msgc-1 [4].
In the same order, the values of `COc1ccc([S+](=O)([O-])N(C(C)=O)c2ccccc2/C=C/c2cc[n+]([O-])cc2)cc1` [IVX-214] (top concentration 46.0829 µM) are 27.7%, 46.4%, 371 and 373.
With `CC1=CC=C2N=C(NC(=O)CS\C3=N\C4=C(\SCC4)C(=O)N3C5=CC=CC=C5)SC2=C1` [IWP-2] (top concentration 46.0829 µM), the viability in the assay on SB.mhdgc-1 [1] came out at 71.7%; in the assay on SB.msgc-1 [2], 39.1%. In addition, the “area under the dose-response curve” value was 528 in the assay with SB.mhdgc-1 [3] and 466 in the assay on SB.msgc-1 [4].
In the same order, the values of `CCCCCN(C)CCC(O)(P(=O)([O-])O)P(=O)(O)O` [Ibandronate sodium hydrate] (top concentration 46.0829 µM) are 107%, 108%, 468 and 547.
In the same order, the values of `CC(C)Cc1ccc(C(C)C(=O)O)cc1` (stereo not drawn) [Ibuprofen lysine] (top concentration 23.0415 µM) are 129%, 81.2%, 508 and 408.
In the same order, the values of `CC(C)(N)C(=O)N[C@H](COCc1ccccc1)C(=O)N1CCC2(CC1)CN([S+](C)(=O)[O-])c1ccccc12` [Ibutamoren mesilate] (top concentration 46.0829 µM) are 59.6%, 107%, 473 and 585.
On to `CCCCCCCN(CC)CCCC(O)c1ccc(NS(C)(=O)=O)cc1.CCCCCCCN(CC)CCCC(O)c1ccc(NS(C)(=O)=O)cc1.O=C(O)/C=C/C(=O)O` (stereo not drawn) [Ibutilide fumarate] (top concentration 46.0829 µM), for which the viability was found to be 37.1% in the assay with SB.mhdgc-1 [1] and 64.3% with SB.msgc-1 [2]. Moreover, the “area under the dose-response curve” value was 523 with SB.mhdgc-1 [3] and 569 with SB.msgc-1 [4].
In the same order, the values of `COC1=CC=C(C=C1)C/2=C(OC3O[C@@H](C)[C@H](O)[C@@H](O)[C@H]3O)/C(=O)C4=C(O2)C(=C(OC5O[C@H](CO)[C@@H](O)[C@H](O)[C@H]5O)C=C4O)CC=C(C)C` (stereo partly drawn) [Icariin] (top concentration 46.0829 µM) are 13.3%, 31.4%, 475 and 497.
As for `COC1=CC=C(C=C1)/C2=C(O)/C(=O)C3=C(O)C=C(O)C(=C3O2)CC=C(C)C` [Icaritin] (top concentration 46.0829 µM), the viability in the assay with SB.mhdgc-1 [1] was 26%; in the assay on SB.msgc-1 [2], 20.8%. In addition, the “area under the dose-response curve” value in the assay with SB.mhdgc-1 [3] is 476; in the assay with SB.msgc-1 [4], 506.
In the same order, the values of `CC(=O)[C@]1(O)Cc2c(O)c3c(c(O)c2[C@@H](O[C@H]2C[C@H](N)[C@H](O)[C@H](C)O2)C1)C(=O)c1ccccc1C3=O` [Idarubicin hydrochloride] (top concentration 46.0829 µM) are 2.79%, 2.05%, 319 and 372.
Taken in the same sequence, the figures for `COC\1=C(/OC)C(=O)\C(=C(C)/C1=O)CCCCCCCCCCO` [Idebenone] (top concentration 46.0829 µM) were 103%, 101%, 566 and 532.
Take `OC[C@H]1O[C@H](C[C@@H]1O)N2\C=C(\I)C(=O)NC2=O` [Idoxuridine] (top concentration 46.0829 µM): the results for the viability in the assay on SB.mhdgc-1 [1] and in the assay with SB.msgc-1 [2] were 115% and 108%, respectively. Also, the entries for the “area under the dose-response curve” value in the assay with SB.mhdgc-1 [3] and with SB.msgc-1 [4] were 586 and 557, respectively.
In the same order, the values of `OC1=CC=C(C=C1)C/2=C/C3=C(OC2)C=C(O)C=C3` [Idronoxil] (top concentration 46.0829 µM) are 87.5%, 85%, 539 and 519.
In the case of `O=P1(NCCCl)OCCCN1CCCl` (stereo not drawn) [Ifomide] (top concentration 46.0829 µM), the viability in the assay with SB.mhdgc-1 [1] amounted to 48.3%; in the assay on SB.msgc-1 [2], 39%. Besides, the “area under the dose-response curve” value was 350 in the assay with SB.mhdgc-1 [3] and 427 in the assay with SB.msgc-1 [4].
In the same order, the values of `COc1cc(C(C)=O)ccc1OCCCN1CCC(c2noc3cc(F)ccc23)CC1` [Iloperidone] (top concentration 46.0829 µM) are 50.2%, 84.2%, 502 and 510.
In the same order, the values of `Cc1ccc(NC(=O)c2ccc(CN3CCN(C)CC3)cc2)cc1Nc1nccc(-c2cccnc2)n1` [Imatinib] (top concentration 46.0829 µM) are 62.3%, 80.2%, 478 and 504.
`NC1=NC(=O)N2CC12` (stereo not drawn) [Imexon] (top concentration 46.0829 µM): the viability amounted to 110% with SB.mhdgc-1 [1] and 121% with SB.msgc-1 [2]. For the same molecule, the “area under the dose-response curve” value with SB.mhdgc-1 [3] was 571; in the assay on SB.msgc-1 [4], 545.
